No end group written: not given here.
Tests used:
A. oryzae BECh2 = assay: Growth of transformants expressing the polypeptide in tubes with YPM (2% maltose); assay type: cell-based, Aspergillus oryzae; details: A. oryzae BECh2 transformed with expression plasmid, 6 days, 10 ml YPM (2% maltose)
Source text: (§1) The A. niger anti-microbial polypeptide was inserted in the Aspergillus expression vector pMT2188 to give pMT2446 (i.e., pMT2188 with an insert comprising the A. niger anti-microbial gene): pMT2446 was transformed into A. oryzae BECh2 (disclosed, e.g., on page 26 of WO 00/39322) and into A. niger MBin118. Thirty transformants of each strain were re-isolated twice under selective and non-inducing conditions on Cove minimal plates with sucrose and acetamide. To test expression of the anti-microbial polypeptide, transformants were grown for 6 days in tubes with 10 ml YPM (2% maltose). Supernatants were run on NuPage 10% Bis-Tris SDS gels with MES running buffer to allow separation in the low mw range.

A. niger MBin118 = assay: as above; assay type: cell-based, Aspergillus niger; details: A. niger MBin118 transformed with expression plasmid, 6 days, 10 ml YPM (2% maltose)
Source text: as §1

[1] = A. giganteus peptide, 51 amino acids; Campos-Olivas et al. (1995); cited from earlier work

**Q.** Which results are given for “A. giganteus anti-fungal polypeptide (AFP): A. giganteus anti-fungal polypeptide (AFP) disclosed in WO 94/01459 (ATYNGKCYKKDNICKYKAQSGKTAICKCYVKKCPRDGAKCEFDSYKGKCYC; UniProt P17737 44-94, looked up)”?
**A.** growth on YPM of host transformants (A. oryzae BECh2): Growth was inhibited; growth on YPM of host transformants (A. niger MBin118): Growth was inhibited

**Q.** For “A. giganteus peptide: anti-fungal peptide from Aspergillus giganteus (Nakaya et al. 1990), 51 amino acids, four S-S bridges (ATYNGKCYKKDNICKYKAQSGKTAICKCYVKKCPRDGAKCEFDSYKGKCYC; disulfide (positions not given here); not fully specified (bridges); also: four S-S bridges, pairing not given here; UniProt P17737 44-94, looked up)”, which pl [1] is on record?
**A.** 9.3

**Q.** Which results are given for “A. niger anti-microbial polypeptide: 58 amino acid mature polypeptide with anti-microbial activity from Aspergillus niger, SEQ ID NO: 2 (positions 1 to 58), expressed from pMT2446 (MQLTSIAIILFAAMGAIANPIAAEADNLVAREAELSKYGGECSVEHNTCTYLKGGKDH; Aspergillus niger)”?
**A.** growth on YPM of host transformants (A. oryzae BECh2): seemed inhibited; growth on YPM of host transformants (A. niger MBin118): seemed to grow normally

— patent US7319087B2, “Antimicrobial polypeptide from Aspergillus niger” (Novozymes A/S, priority 2001, dated 2008)
